Source: patent US20230126361A1, “METHODS OF CONTROLLING OR PREVENTING INFESTATION OF PLANTS BY THE PHYTOPATHOGENIC MICROORGANISM CORYNESPORA CASSIICOLA, […] AND/OR […]” (SYNGENTA CROP PROTECTION AG, priority 2020, published 2023)

Assays:
Assay type in all cases: cell-based
Conditions in all cases: PDB, 24° C., 3-4 days, 620 nm
Corynespora cassiicola = Corynespora cassiicola (target leaf spot) liquid culture growth inhibition
Method: Conidia of the fungus from cryogenic storage were directly mixed into nutrient broth (PDB potato dextrose broth). A DMSO solution of the test compounds was placed into a microtiter plate (96-well format) and the nutrient broth containing the fungal spores was added to it. The test plates were incubated at 24° C. and the inhibition of growth (% control of Corynespora cassiicola) was determined photometrically after 3-4 days at 620 nm. The activity of a compound is derived by comparing the inhibition of growth in the treated test solution to the growth in the untreated check. […]

Cercospora sojina = Cercospora sojina (frogeye leaf spot) liquid culture growth inhibition
Method: (§1) Conidia of the fungus from cryogenic storage were directly mixed into nutrient broth (PDB potato dextrose broth). A DMSO solution of the test compounds was placed into a microtiter plate (96-well format) and the nutrient broth containing the fungal spores was added to it. The test plates were incubated at 24° C. and the inhibition of growth was determined photometrically after 3-4 days at 620 nm.

Cercospora kikuchii = Cercospora kikuchii (leaf blight) liquid culture growth inhibition
Method: as §1

With `Cc1nc2c(F)c(F)ccc2cc1Oc1cccc(F)c1C(C)(C)O` [2-[2-(7,8-difluoro-2-methylquinolin-3-yloxy)-6-fluorophenyl]propan-2-ol] the “% control of Corynespora cassiicola” value (Corynespora cassiicola; 0.027 ppm) was “at least 20%”, the “% control of Corynespora cassiicola” value (Corynespora cassiicola; 0.25 ppm) was “at least 20%” and the “% control of Corynespora cassiicola” value (Corynespora cassiicola; 0.74 ppm) was “at least 50%”. For the same molecule, the “% control of Corynespora cassiicola” value (Corynespora cassiicola; 2.2 ppm) was “at least 70%”, the “% control of Corynespora cassiicola” value (Corynespora cassiicola; 6.7 ppm) was “at least 90%” and the “% control of Cercospora sojina” value (Cercospora sojina; 0.25 ppm) was “at least 20%”. For the same molecule, the “% control of Cercospora sojina” value (Cercospora sojina; 0.74 ppm) was “at least 20%”, the “% control of Cercospora sojina” value (Cercospora sojina; 2.2 ppm) was “at least 50%” and the “% control of Cercospora sojina” value (Cercospora sojina; 6.7 ppm) was “at least 50%”. For the same molecule, the “% control (Example 3: Cercospora kikuchii)” value (Cercospora kikuchii; 0.74 ppm) was “at least 20%”, the “% control of Cercospora kikuchii” value (Cercospora kikuchii; 2.2 ppm) was “at least 50%” and the “% control of Cercospora kikuchii” value (Cercospora kikuchii; 6.7 ppm) was “at least 50%”.
